From publication PMC3024946, “Hydroxyproline-containing collagen analogs trigger the release and activation of collagen-sequestered proMMP-2 by competition with prodomain-derived peptide P33-42” (Fibrogenesis & Tissue Repair, 2011)

Legend:
ProMMP-9 = test: Solid-phase binding of [125I]-proMMP-9 to immobilized collagens/peptides (microwells); set-up: species or system human; details: ProMMP-9, 2 ng/well; coated wells; 4°C, 2 h; residual radioactivity; mean ± SD, at least five experiments in triplicate
Description: (§1) Human recombinant proMMPs and in vitro activated MMPs were obtained from Invitek and were labeled with the [^125I]-Bolton-Hunter reagent according to the manufacturer's instructions (PerkinElmer, Rodgau, Germany) before the buffer was exchanged for phosphate-buffered saline (PBS) with 0.05% (vol/vol) Tween 20 by gel filtration as described previously. Specific radioactivity for [^125I]-MMPs was 3-9 × 10^4 cpm/ng. Precipitation with 10% (wt/vol) trichloroacetic acid and 200 μg of BSA recovered 96% to 100% of protein-bound radioactivity. Aliquots of labeled MMPs were frozen and stored at -80°C. The activity and integrity were checked by substrate gel zymography using SDS-PAGE and autoradiography with overnight exposure to Biomax MS film (Kodak, Stuttgart, Germany) (Figure 2A).
(§2) Native human CI, CIII and CVI were purified from skin tissue and placenta. The CI single chains α1(I) and α2(I) were obtained and modified as described previously. To prepare defined fragments, 2 mg of α1(I) were dissolved in 1 ml of 70% (vol/vol) formic acid at room temperature, the tubes were flushed with nitrogen for 10 min, and then 2 mg of CB were added. After incubation for 4 h at 37°C, free CB was neutralized and the samples were lyophilized. The peptides CB3, CB6, CB7 and CB8 were separated from the reaction mixture by gel filtration followed by ion-exchange chromatography. The resulting peptides were characterized by amino acid analysis and SDS-PAGE [45, 46]. The CB peptides had the following melting temperatures: CB3, 23.9°C; CB6, 26.7°C; CB7, 28.1°C; and CB8, 28.0°C [31].
(§3) The following collagen analogs and control peptides were synthesized as described previously: (GPO)10, H-Gly-Cys-Hyp-(Gly-Pro-Hyp)10-Gly-Cys-Hyp-Gly-NH2; (GPP)10, H-Gly-Cys-Pro-(Gly-Pro-Pro)10-Gly-Cys-Pro-Gly-NH2; and GAP, H-Gly-Ala-Cys-(Gly-Ala-Pro)5-Gly-Phe-Hyp-Gly-Glu-Arg-(Gly-Ala-Pro)5-NH2. Peptides (POG)10, (PPG)10 and (POG)5 were purchased from Peptide International (Louisville, KY, USA). Spontaneous triple-helix assembly was approved by polarimetry over a 10-cm path length at 1°C/min in 10 mM phosphate buffer, pH 7.4. At 5 mg/ml, midpoints of melting curves occurred at 82.3 ± 1.4°C for (GPO)10 and at 45.8 ± 0.8°C for (GPP)10. […] Graphs were calculated from the primary data using a custom fitting program written by D.A. Slatter (Department of Biochemistry, University of Cambridge, Cambridge, UK [48]) to model different possible transitions. All collagens, CI derivatives and peptides were stored in stock solutions of 2 mg/ml in 150 mM acetic acid at -20°C.
(§4) ProMMP-2 and proMMP-9 or actMMP-2 and actMMP-9 were bound to nitrocellulose and polystyrene-immobilized native collagens, CI chains, CB peptides or structural analogs. Serial dilutions of collagens or CI derivatives in 150 mM acetic acid were dotted at 3 × 3 μl to a nitrocellulose membrane with high protein-binding capacity (GE Healthcare, Munich, Germany). Air-dried membranes were blocked with PBS and 0.3% (vol/vol) Tween 20 overnight at 4°C, washed three times, and incubated with 1 ng/ml [^125I]-pro- and actMMP-2 and pro- and actMMP-9 in PBS and 0.3% (vol/vol) Tween 20 for 2 h at room temperature. Membranes were washed again and air-dried, and bound MMP was monitored by autoradiography. In parallel, polystyrene microtiter plates (Dynex, Chantilly, VA, USA) were coated with collagen proteins and peptides. Here 2 μg/well or 200 ng/well proteins and peptides or BSA as control were immobilized in 100 μl of 50 mM ammonium bicarbonate buffer, pH 9.6, by overnight incubation at 4°C. Immobilization efficacies were 20% to 45% of total proteins. Wells were washed three times with PBS, and nonspecific binding sites were blocked with PBS and 0.05% (vol/vol) Tween 20 for 1 h at room temperature. All incubation steps were performed with 2 ng of [^125I]-MMPs at 4°C for 2 h. […]

ProMMP-2 = test: Solid-phase binding of [125I]-proMMP-2 to immobilized collagens/peptides (microwells); set-up: species or system human; details: for Binding of [125I]-MMPs: ProMMP-2, 2 ng/well, coated wells, 4°C, 2 h, residual radioactivity, mean ± SD, at least five experiments in triplicate
Description: as §1, §2, §3, §4

ActMMP-2 = test: Solid-phase binding of [125I]-actMMP-2 to immobilized collagens/peptides (microwells); set-up: species or system human; details: for Binding of [125I]-MMPs: ActMMP-2, 2 ng/well, coated wells, 4°C, 2 h, residual radioactivity, mean ± SD, at least five experiments in triplicate
Description: as §1, §2, §3, §4

ActMMP-9 = test: Solid-phase binding of [125I]-actMMP-9 to immobilized collagens/peptides (microwells); set-up: species or system human; details: ActMMP-9, 2 ng/well; coated wells; 4°C, 2 h; residual radioactivity; mean ± SD, at least five experiments in triplicate
Description: as §1, §2, §3, §4

[1] = test system: gelatinase activity in rat cirrhotic liver; test: In situ zymography of cirrhotic liver, negative controls; format: biochemical; details: 10 mM ethylenediaminetetraacetic acid or 1 mM phenanthroline; DQ-gelatine
Description: As described earlier, in situ zymography was performed with cryostat sections (6 μm) of rat cirrhotic liver. In brief, sections were dried, overlayed with 100 μg/ml DQ-gelatine (λex/em, 495/515 nm; Molecular Probes, Eugene, OR, USA) and 0.5% (wt/vol) low-melt agarose in MMP activity buffer. […] Samples were inserted into coverslips and incubated at 40°C for 1 h before being transferred to room temperature for an additional 2 to 16 h. Hoechst 33342 (Invitrogen, Carlsbad, California, USA) nuclear dye was used for counterstaining. Images were obtained by fluorescence microscopy using a Nikon E800 photodocumentation microscope (Nikon Imaging, Düsseldorf, Germany).

proMMP-2 / CI = target: T1, proMMP-2 / CI (Homo sapiens, UniProt P08253); test: SPR, competition of proMMP-2 binding to CI, MMP activity buffer with Ro 28-2653; details: SPR; MMP activity buffer with Ro 28-2653
T1 construct: prodomain-containing proMMP-2 or proMMP-9; purchased Invitek
T1 sequence (P08253 30-660 limits assumed): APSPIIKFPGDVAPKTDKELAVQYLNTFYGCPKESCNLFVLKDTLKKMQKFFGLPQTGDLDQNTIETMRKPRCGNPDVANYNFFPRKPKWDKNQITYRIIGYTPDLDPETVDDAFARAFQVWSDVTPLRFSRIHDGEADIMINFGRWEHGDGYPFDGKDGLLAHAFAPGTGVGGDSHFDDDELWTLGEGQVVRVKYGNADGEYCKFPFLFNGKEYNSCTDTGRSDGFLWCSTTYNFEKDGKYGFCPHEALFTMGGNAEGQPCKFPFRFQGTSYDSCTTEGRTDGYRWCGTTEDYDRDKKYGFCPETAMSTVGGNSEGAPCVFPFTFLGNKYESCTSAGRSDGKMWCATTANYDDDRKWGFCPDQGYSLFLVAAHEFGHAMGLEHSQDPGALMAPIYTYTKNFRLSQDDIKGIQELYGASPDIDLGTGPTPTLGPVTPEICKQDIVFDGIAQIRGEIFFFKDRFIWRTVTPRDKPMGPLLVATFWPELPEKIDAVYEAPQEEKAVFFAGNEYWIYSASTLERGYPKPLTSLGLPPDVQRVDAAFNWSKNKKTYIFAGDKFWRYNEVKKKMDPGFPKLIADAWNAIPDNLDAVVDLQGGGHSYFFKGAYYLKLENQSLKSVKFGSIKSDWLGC
Description: (§5) Sensor chip preparations and SPR measurements were performed using a BiacoreX device and the Bia-evaluation software (version 3.2; Biacore, Uppsala, Sweden). The pepsin-resistant triple-helical part of human fibrillar CI (100 μg/ml) in 10 mM acetate coupling buffer, pH 4.8, was immobilized to a dextran matrix-sensor chip at a flow rate of 5 μl/min, resulting in 5,500 resonance units from CI covalently linked via its primary amino groups. The control flow cell was prepared using the coupling buffer without CI. Surfaces were activated and blocked as described previously. Immediately after thawing, pro- and actMMP-2 and pro- and actMMP-9 were diluted to 100 to 250 nM in MMP activity buffer or in PBS and 0.05% (vol/vol) Tween 20. For SPR measurements, flow rates were 10 μl/min at 25°C, and equilibrium was typically reached after 30 to 60 s. The effects of (GPO)10, GAP, (POG)5, (GPP)10 and P33-42 on MMP-2 and MMP-9 binding to CI and their enzymatic activity were determined by adding the binding competitors to the (pro- and act)MMP-2 and MMP-9 solution in 10- to 150-fold molar excesses. Effects independent of MMP-2 and MMP-9 activity were monitored in the presence of Ro 28-2653 (1 μM) during SPR analysis. The gelatinase inhibitor Ro 28-2653 was a generous gift from H.-W. Krell (Roche, Grenzach-Wyhlen, Germany). Sensor surfaces were regenerated with 10 mM glycine, pH 2.3, for 1 min between runs, and sensor chips were used up to 25 times. Kinetic parameters were analyzed using the 1:1 binding model with drifting baseline and subtraction of the control flow cell binding from sensorgrams obtained with immobilized CI. Binding constants (Kd) were calculated from the association (ka) and dissociation rates (kd) obtained from individual binding curves at different concentrations. Individual drifts of the resonance signal were fitted locally, and χ^2 values of 0.2% to 1.0% of the maximum resonance value were considered good fits.

MMPs / CI = test: SPR, effect of control peptide on interaction of the MMPs with CI; format: binding, human; details: linear control peptide, not shown
Description: as §5, with “Immediately after thawing, pro- and actMMP-2 and pro- and actMMP-9 were diluted to 100 to 250 nM in MMP activity buffer or in PBS and 0.05% (vol/vol) Tween 20. For SPR measurements, flow rates were 10 μl/min at 25°C, and equilibrium was typically reached after 30 to 60 s.” left out, “The gelatinase inhibitor Ro 28-2653 was a generous gift from H.-W. Krell (Roche, Grenzach-Wyhlen, Germany). Sensor surfaces were regenerated with 10 mM glycine, pH 2.3, for 1 min between runs, and sensor chips were used up to 25 times.” left out, “Individual drifts of the resonance signal were fitted locally, and χ^2 values of 0.2% to 1.0% of the maximum resonance value were considered good fits.” left out

[2] = Triple-helix melting temperature; format: physicochemical; details: at 5°C; polarimetry
Description: as §2, §3

Molecule	Binding of [125I]-MMPs (ProMMP-9)	Binding of [125I]-MMPs (ProMMP-2)	Binding of [125I]-MMPs (ActMMP-2)	Binding of [125I]-MMPs (ActMMP-9)	maximum binding (ActMMP-2; actMMP-2, text)	gelatinase activity [1]	interaction with control peptides (ProMMP-2; pro- and act-forms of MMP-2 and MMP-9, in words)	competition with proMMP-2 binding to CI (proMMP-2 / CI)	effect on interaction of the MMPs with CI (MMPs / CI)	helicity [2]
CVI: native human collagen type VI	12.3 ± 0.8 % of maximum control	14.1 ± 1.8 % of maximum control	4.8 ± 0.6 % of maximum control	2.4 ± 0.1 % of maximum control	–	–	–	–	–	–
α1(I): α1 chain of collagen type I	37.6 ± 0.9 % of maximum control	36.0 ± 4.0 % of maximum control	19.0 ± 3.0 % of maximum control	4.7 ± 0.3 % of maximum control	19%	–	–	–	–	–
O=C(O)CN(CCN(CC(=O)O)CC(=O)O)CC(=O)O [ethylenediaminetetraacetic acid]	–	–	–	–	–	no generation of bright green fluorescence was observed	–	–	–	–
H-Gly-Ala-Cys-(Gly-Ala-Pro)5-Gly-Phe-Hyp-Gly-Glu-Arg-(Gly-Ala-Pro)5-NH2 [GAP, linear Gly-Ala-Pro (GAP) control peptide]	1.3 ± 0.2 % of maximum control	1.7 ± 1.0 % of maximum control	1.5 ± 0.7 % of maximum control	0.7 ± 0.2 % of maximum control	–	–	only marginal interactions	less efficient	no effect	nonhelical even at 5 °C
c1cnc2c(c1)ccc1cccnc12 [phenanthroline]	–	–	–	–	–	no generation of bright green fluorescence was observed	–	–	–	–
α2(I): CI single chain α2(I)	21.8 ± 1.1 % of maximum control	30.2 ± 2.3 % of maximum control	10.7 ± 1.8 % of maximum control	2.6 ± 0.2 % of maximum control	–	–	–	–	–	–
